# What was measured:
# Assay type in all cases: cell-based, mouse
# [1] = tested on: bone marrow-derived macrophages (BMDM); assay: Cell morphology of bone marrow-derived macrophages; conditions: LPS or SSE, 24 hr
# Procedure: FIGS. 6A-6D show an immunomodulatory effect of SSE on bone marrow-derived macrophages (BMDM). BMDM were isolated and cultured as described in the methods. Cells were treated with LPS and/or SSE for 24 hr. A. micrographs of cells were performed by bright field Olympus imaging system. Upper two: left—control; right—LPS; lower two: left—SSE; right—LPS+SSE. B. NO synthesis was measured by Griess reagent as described in the methods. C. mRNA was isolated and expression of selected genes was measured by RT-PCR as described in the methods. Results were normalized to the expression of the housekeeping gene RPS29, and are presented as the Mean±SEM. *P<0.05, **P<0.005, ***P<0.001 ****P<0.0001 compared to control, or as indicated in graphs, by one-way Anova, followed by Bonferroni's post-test. D. Western-blot analysis was performed as described in the methods. These are representative results of 3 independent experiments.
# (§1) In-vitro experiments were performed on RAW264.7 mouse macrophage cell line and on bone marrow-derived macrophages (BMDM). RAW264.7 cells were grown in high glucose DMEM containing 10% FBS, 2 mM 1-glutamine and 1% penicillin/streptomycin. For BMDM: C57bl/6J mice at age 10 weeks were purchased from Envigo, Israel. BMDMs were isolated from femur and tibia bones. Mice were sacrificed using a CO2 chamber. […]
# RAW264.7 cells [2] = assay: Cell morphology, bright field micrographs; conditions: LPS or SSE, 24 h
# Procedure: FIGS. 3A-3B show increased viability and affected cell morphology in […] cells in response to SSE treatment. RAW264.7 cells were treated with lipopolysaccharide (LPS) or SSE for 24 h. A. Viability was measured by XTT assay. Results are presented as the Mean±SEM, *P<0.05, **P<0.005, ***P<0.001 by one-way Anova, followed by Bonferroni's post-test. B. Micrographs of cells were performed using bright field Olympus imaging system, ×20 magnification. Upper two: left—control; right—LPS; lower two: left—SSE; right—LPS+SSE.
# as §1, with “chamber. Mice legs were cut off, while fur, flesh and muscle tissue were removed in sterile environment followed by disconnection of the tibia from the femur. Bone marrow content was washed out using a complete RPMI and 23G syringe followed by filtration of the supernatant through a 21G syringe.” for “chamber.”
# RAW264.7 cells [3] = assay: Western blot analysis of MAPK, STAT and Akt phosphorylation
# Procedure: RAW264.7 cells were treated with LPS (200 ng/ml) and/or SSE (70 μg/ml) for 24 hr. Protein were lysed using RIPA buffer supplemented with protease and phosphatase inhibitors. The samples were homogenized and centrifuged at 14,000 rpm for 15 min. The supernatant was collected and protein concentration was measured using the Bradford method. Proteins (20 μg per lane) were separated by SDS-polyacrylamide gel electrophoresis and transferred onto nitrocellulose membranes. The membranes were blocked in 5% dry milk solution, incubated with the appropriate antibody solutions (5% BSA in 0.01% TBST) and proteins were immunodetected using the enhanced chemiluminescence method.
# RAW264.7 cells [4] = assay: Cell viability assay (XTT); conditions: 24 h
# Procedure: (§2) In-vitro experiments were performed on RAW264.7 mouse macrophage cell line and on bone marrow-derived macrophages (BMDM). RAW264.7 cells were grown in high glucose DMEM containing 10% FBS, 2 mM 1-glutamine and 1% penicillin/streptomycin. For BMDM: C57bl/6J mice at age 10 weeks were purchased from Envigo, Israel. BMDMs were isolated from femur and tibia bones. Mice were sacrificed using a CO2 chamber. Mice legs were cut off, while fur, flesh and muscle tissue were removed in sterile environment followed by disconnection of the tibia from the femur. Bone marrow content was washed out using a complete RPMI and 23G syringe followed by filtration of the supernatant through a 21G syringe. The cells were centrifuged at 450×g for 10 min at room temperature and the pellet was resuspended in RPMI containing 10% FBS, 1% penicillin/streptomycin, HEPES buffer ([…]) and M-CSF ([…]). The media was replaced every 3 days. The experiment was performed on the 7th day of differentiation.
# RAW264.7 cells were seeded (5×10^4 cells/well) in 96-well plates, and incubated overnight followed by treatment with LPS (200 ng/ml) and/or SSE (70 μg/ml). Cell viability was determined by XTT assay (Biological Industries, Israel. Cat. No.: 20-300-1000) according to manufacturer instructions.
# NFκB in RAW264.7 cells = assay: NFκB activation (NFkB p65 Transcription Factor Assay Kit); conditions: LPS 200 ng/ml, SSE 70 μg/ml
# Procedure: RAW264.7 cells were treated with LPS (200 ng/ml) or SSE (70 μg/ml) for 3 h. NFκB activation was measured using NFkB p65 Transcription Factor Assay Kit (Abcam, Cambridge, UK), according to manufacturer instructions. In this assay, nuclear proteins were extracted using extraction buffer supplied by Abcam. The samples were homogenized and centrifuged at 12,000 RPM for 1 min. The supernatant was collected and protein concentration was measured using the Bradford method. Nuclear protein extract (5 μg) was added to the wells, which were coated with DNA sequence containing the NFkB response element. The selective binding of the transcription factor to its DNA response element was measured according to manufacturer's instructions.
# RAW264.7 cells [5] = assay: Nitrite assay (Griess reagent), NO synthesis; conditions: LPS and/or SSE, 24 h
# Procedure: (§3) RAW264.7 cells (1×10^5 cells/ml) were cultured in 6-well plates. After 24 h incubating, NO synthesis was determined by assaying the culture supernatant for nitrite, using Griess reagent (Promega), according to manufacturer instructions.
# [6] = tested on: bone marrow-derived macrophages (BMDM); assay: Western blot analysis of MAPK phosphorylation in BMDM
# Procedure: as §2
# RAW264.7 cells were treated with LPS (200 ng/ml) and/or SSE (70 μg/ml) for 24 hr. Protein were lysed using RIPA buffer supplemented with protease and phosphatase inhibitors. The samples were homogenized and centrifuged at 14,000 rpm for 15 min. The supernatant was collected and protein concentration was measured using the Bradford method. […]
# [7] = tested on: bone marrow-derived macrophages (BMDM); assay: mRNA expression in BMDM (RT-PCR); conditions: 24 hr
# Procedure: as §2
# (§4) Total RNA was extracted from Raw264.7 cells using TRI reagent (Molecular Research Center, Inc. Cincinnati, Ohio) according to manufacturer instructions. RNA (4 μg) was reverse transcribed by oligo-dT priming (Stratascript 5.0 multi-temperature reverse transcriptase, Stratagene) according to manufacturer instructions. Real-time PCR amplification reactions were performed using SYBR Fast Universal Ready-mix Kit (Kappa Biosystems), using the MxPro QPCR instrument (Stratagene). Primers for real time PCR reactions were synthesized by Sigma, Israel.
# RAW264.7 cells [8] = assay: Real time PCR, mRNA expression of pro and anti-inflammatory genes; conditions: LPS and/or SSE, 24 h
# Procedure: as §4
# [9] = tested on: bone marrow-derived macrophages (BMDM); assay: NO secretion of BMDM (Griess reagent); conditions: 24 hr
# Procedure: as §2, §3
# [10] = LPS 200 ng/ml or SSE 70 μg/ml, 24 hr
substance,measurement,setting,value
lipopolysaccharide [LPS],morphology of BMDM,[1],"enlargement of the cells, with a minor vacuolization"
same,morphology of cells,RAW264.7 cells [2],"flattened, increased in size and acquired a distinct dendritic morphology"
same,Akt phosphorylation,RAW264.7 cells [3],induced
same,STAT1 phosphorylation,RAW264.7 cells [3],not affected
same,STAT3 phosphorylation on S727 residue,RAW264.7 cells [3],induced to be phosphorylated
same,ERK1/2 phosphorylation,RAW264.7 cells [3]; [10],phosphorylated
same,JNK phosphorylation,RAW264.7 cells [3]; [10],phosphorylated
same,p38 phosphorylation,RAW264.7 cells [3]; [10],phosphorylated
same,STATS phosphorylation,RAW264.7 cells [3]; data not shown,not detected at all
same,proliferation rate (viability by XTT),RAW264.7 cells [4],stimulatory effect
same,NFκB activation (binding of NFκB to its DNA response element),NFκB in RAW264.7 cells,increased
same,NO synthesis (nitrite in supernatant),RAW264.7 cells [5],increased
same,Erk phosphorylation,[6],phosphorylated
same,P38 phosphorylation,[6],increased
same,mRNA expression of Arg1,[7],also increased
same,mRNA expression of IL1β,[7],stimulated
same,mRNA expression of IL-6,[7],stimulated
same,mRNA expression of IL-10,[7],also increased
same,mRNA expression of MCP-1,[7],stimulated
same,mRNA expression of TNFα,[7],stimulated
same,mRNA expression of IL1β,RAW264.7 cells [8],increased
same,mRNA expression of IL-6,RAW264.7 cells [8],increased
same,mRNA expression of MCP-1,RAW264.7 cells [8],increased
same,mRNA expression of TNFα,RAW264.7 cells [8],increased
same,NO secretion (basal),[9],significantly increased

# — patent US20220133831A1, “Sarcopoterium Spinosum Extract for Treating Inflammation” (Ariel Scientific Innovations Ltd., priority 2019, published 2022)
